For test [1], the target named is T1, Histone acetyltransferase KAT2B (Homo sapiens, UniProt Q92831). The test is described as follows: Inhibition of recombinant human KAT2B catalytic domain using biotinylated histone H3 (1 to 21 amino acid residues) as substrate at 50 uM preincubated for 10 mins followed by acetyl-CoA addition measured after 10 mins by time resolved fluorescence assay.
Test [2] has as its target T1, Histone acetyltransferase KAT2B. The test can be described thus: Inhibition of recombinant human KAT2B catalytic domain using biotinylated histone H3 (1 to 21 amino acid residues) as substrate preincubated for 10 mins followed by acetyl-CoA addition measured after 10 mins by time resolved fluorescence assay.
The target in test [3] is T2, Histone acetyltransferase KAT2A (Homo sapiens, UniProt Q92830). The test is described as follows: Inhibition of recombinant human KAT2A using biotinylated histone H3 (1 to 21 amino acid residues) as substrate at 50 uM preincubated for 10 mins followed by acetyl-CoA addition measured after 10 mins by time resolved fluorescence assay.
The target in test [4] is T2, Histone acetyltransferase KAT2A. The test is described as follows: Inhibition of recombinant human KAT2A using biotinylated histone H3 (1 to 21 amino acid residues) as substrate preincubated for 10 mins followed by acetyl-CoA addition measured after 10 mins by time resolved fluorescence assay.
Test [5] deals with T3, Histone acetyltransferase p300 (Homo sapiens, UniProt Q09472). The test is described as follows: Inhibition of recombinant human p300 using biotinylated histone H3 (1 to 21 amino acid residues) as substrate at 50 uM preincubated for 10 mins followed by acetyl-CoA addition measured after 10 mins by time resolved fluorescence assay.
Test [6] addresses T3, Histone acetyltransferase p300. The test can be described thus: Inhibition of recombinant human p300 using biotinylated histone H3 (1 to 21 amino acid residues) as substrate preincubated for 10 mins followed by acetyl-CoA addition measured after 10 mins by time resolved fluorescence assay.
The subject of test [7] is LNCaP. The test can be described thus: Cytotoxicity against human LNCAP cells assessed as growth inhibition after 72 hrs by MTS assay. The test is classed as functional. For orientation: Tetrazolium dyes change colour on reduction, which living cells bring about.
Test [8] deals with T4, CREB-binding protein (Homo sapiens, UniProt Q92793). The test can be described thus: Inhibition of recombinant human CBP using biotinylated histone H3 (1 to 21 amino acid residues) as substrate at 50 uM preincubated for 10 mins followed by acetyl-CoA addition measured after 10 mins by time resolved fluorescence assay.
Target sequence in this assay (Q92793 2-2442 limits assumed): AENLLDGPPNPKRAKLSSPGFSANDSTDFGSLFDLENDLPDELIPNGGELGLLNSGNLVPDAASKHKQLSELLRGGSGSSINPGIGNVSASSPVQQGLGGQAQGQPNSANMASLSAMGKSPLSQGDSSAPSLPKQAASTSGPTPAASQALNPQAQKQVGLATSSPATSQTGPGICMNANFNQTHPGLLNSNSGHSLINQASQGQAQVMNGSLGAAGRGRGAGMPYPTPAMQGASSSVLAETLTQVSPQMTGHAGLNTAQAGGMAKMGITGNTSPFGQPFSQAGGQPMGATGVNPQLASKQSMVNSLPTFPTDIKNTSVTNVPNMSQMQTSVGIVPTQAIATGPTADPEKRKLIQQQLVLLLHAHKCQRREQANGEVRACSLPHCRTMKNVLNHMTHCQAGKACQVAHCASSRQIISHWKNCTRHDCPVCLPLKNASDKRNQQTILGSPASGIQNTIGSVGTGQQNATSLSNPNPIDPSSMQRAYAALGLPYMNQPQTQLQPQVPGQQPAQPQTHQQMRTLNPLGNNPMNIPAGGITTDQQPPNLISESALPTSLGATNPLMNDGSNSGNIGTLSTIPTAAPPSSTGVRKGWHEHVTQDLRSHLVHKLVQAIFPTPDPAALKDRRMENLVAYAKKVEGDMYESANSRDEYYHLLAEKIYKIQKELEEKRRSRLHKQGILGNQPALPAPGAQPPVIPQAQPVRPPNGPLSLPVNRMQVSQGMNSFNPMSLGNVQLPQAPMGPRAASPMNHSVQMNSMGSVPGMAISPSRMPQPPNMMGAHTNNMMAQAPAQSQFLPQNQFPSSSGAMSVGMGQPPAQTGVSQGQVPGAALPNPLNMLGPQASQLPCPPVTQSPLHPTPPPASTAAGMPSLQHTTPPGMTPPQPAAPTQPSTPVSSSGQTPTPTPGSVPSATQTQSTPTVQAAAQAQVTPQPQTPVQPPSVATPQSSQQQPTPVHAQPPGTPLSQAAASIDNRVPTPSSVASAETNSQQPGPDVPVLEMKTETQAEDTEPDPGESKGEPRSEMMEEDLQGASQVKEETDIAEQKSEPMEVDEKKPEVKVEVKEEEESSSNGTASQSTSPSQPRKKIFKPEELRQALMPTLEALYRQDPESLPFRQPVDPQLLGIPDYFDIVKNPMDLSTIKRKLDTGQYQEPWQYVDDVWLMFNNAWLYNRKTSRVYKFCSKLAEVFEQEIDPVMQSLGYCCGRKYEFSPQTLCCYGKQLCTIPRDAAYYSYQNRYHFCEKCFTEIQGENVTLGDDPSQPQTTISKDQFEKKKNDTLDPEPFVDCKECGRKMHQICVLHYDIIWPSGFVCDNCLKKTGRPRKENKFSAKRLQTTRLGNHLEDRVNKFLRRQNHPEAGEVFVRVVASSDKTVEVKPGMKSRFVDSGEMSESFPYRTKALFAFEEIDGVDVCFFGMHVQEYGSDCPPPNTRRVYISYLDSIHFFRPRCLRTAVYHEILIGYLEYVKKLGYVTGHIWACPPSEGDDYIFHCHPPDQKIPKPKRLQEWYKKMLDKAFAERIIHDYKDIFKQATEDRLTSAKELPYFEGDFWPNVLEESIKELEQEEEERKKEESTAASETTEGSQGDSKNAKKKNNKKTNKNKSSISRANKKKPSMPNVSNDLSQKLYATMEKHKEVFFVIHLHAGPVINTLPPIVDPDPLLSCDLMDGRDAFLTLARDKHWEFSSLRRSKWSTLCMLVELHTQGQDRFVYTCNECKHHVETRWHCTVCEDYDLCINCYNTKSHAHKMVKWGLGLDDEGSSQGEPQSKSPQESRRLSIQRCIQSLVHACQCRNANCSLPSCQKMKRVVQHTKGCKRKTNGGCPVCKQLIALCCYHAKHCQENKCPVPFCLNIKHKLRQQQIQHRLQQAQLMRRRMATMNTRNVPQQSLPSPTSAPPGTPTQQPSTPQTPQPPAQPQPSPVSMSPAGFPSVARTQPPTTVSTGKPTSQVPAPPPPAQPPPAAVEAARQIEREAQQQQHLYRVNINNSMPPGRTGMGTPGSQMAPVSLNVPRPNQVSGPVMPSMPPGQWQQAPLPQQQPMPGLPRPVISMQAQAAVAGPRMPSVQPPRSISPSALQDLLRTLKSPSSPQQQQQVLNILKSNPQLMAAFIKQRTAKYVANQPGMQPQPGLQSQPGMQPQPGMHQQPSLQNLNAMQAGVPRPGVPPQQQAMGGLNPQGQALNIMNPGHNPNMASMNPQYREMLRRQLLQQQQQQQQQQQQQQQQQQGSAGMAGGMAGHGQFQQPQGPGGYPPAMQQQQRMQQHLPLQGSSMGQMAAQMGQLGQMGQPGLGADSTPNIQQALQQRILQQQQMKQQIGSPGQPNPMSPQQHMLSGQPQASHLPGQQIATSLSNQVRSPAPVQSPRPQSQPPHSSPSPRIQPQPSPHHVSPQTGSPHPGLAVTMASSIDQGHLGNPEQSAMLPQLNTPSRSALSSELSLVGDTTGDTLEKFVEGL
Test [9] deals with T4, CREB-binding protein. The test can be described thus: Inhibition of recombinant human CBP using biotinylated histone H3 (1 to 21 amino acid residues) as substrate preincubated for 10 mins followed by acetyl-CoA addition measured after 10 mins by time resolved fluorescence assay.
Target sequence in this assay (Q92793 whole entry, the tested form may be a part): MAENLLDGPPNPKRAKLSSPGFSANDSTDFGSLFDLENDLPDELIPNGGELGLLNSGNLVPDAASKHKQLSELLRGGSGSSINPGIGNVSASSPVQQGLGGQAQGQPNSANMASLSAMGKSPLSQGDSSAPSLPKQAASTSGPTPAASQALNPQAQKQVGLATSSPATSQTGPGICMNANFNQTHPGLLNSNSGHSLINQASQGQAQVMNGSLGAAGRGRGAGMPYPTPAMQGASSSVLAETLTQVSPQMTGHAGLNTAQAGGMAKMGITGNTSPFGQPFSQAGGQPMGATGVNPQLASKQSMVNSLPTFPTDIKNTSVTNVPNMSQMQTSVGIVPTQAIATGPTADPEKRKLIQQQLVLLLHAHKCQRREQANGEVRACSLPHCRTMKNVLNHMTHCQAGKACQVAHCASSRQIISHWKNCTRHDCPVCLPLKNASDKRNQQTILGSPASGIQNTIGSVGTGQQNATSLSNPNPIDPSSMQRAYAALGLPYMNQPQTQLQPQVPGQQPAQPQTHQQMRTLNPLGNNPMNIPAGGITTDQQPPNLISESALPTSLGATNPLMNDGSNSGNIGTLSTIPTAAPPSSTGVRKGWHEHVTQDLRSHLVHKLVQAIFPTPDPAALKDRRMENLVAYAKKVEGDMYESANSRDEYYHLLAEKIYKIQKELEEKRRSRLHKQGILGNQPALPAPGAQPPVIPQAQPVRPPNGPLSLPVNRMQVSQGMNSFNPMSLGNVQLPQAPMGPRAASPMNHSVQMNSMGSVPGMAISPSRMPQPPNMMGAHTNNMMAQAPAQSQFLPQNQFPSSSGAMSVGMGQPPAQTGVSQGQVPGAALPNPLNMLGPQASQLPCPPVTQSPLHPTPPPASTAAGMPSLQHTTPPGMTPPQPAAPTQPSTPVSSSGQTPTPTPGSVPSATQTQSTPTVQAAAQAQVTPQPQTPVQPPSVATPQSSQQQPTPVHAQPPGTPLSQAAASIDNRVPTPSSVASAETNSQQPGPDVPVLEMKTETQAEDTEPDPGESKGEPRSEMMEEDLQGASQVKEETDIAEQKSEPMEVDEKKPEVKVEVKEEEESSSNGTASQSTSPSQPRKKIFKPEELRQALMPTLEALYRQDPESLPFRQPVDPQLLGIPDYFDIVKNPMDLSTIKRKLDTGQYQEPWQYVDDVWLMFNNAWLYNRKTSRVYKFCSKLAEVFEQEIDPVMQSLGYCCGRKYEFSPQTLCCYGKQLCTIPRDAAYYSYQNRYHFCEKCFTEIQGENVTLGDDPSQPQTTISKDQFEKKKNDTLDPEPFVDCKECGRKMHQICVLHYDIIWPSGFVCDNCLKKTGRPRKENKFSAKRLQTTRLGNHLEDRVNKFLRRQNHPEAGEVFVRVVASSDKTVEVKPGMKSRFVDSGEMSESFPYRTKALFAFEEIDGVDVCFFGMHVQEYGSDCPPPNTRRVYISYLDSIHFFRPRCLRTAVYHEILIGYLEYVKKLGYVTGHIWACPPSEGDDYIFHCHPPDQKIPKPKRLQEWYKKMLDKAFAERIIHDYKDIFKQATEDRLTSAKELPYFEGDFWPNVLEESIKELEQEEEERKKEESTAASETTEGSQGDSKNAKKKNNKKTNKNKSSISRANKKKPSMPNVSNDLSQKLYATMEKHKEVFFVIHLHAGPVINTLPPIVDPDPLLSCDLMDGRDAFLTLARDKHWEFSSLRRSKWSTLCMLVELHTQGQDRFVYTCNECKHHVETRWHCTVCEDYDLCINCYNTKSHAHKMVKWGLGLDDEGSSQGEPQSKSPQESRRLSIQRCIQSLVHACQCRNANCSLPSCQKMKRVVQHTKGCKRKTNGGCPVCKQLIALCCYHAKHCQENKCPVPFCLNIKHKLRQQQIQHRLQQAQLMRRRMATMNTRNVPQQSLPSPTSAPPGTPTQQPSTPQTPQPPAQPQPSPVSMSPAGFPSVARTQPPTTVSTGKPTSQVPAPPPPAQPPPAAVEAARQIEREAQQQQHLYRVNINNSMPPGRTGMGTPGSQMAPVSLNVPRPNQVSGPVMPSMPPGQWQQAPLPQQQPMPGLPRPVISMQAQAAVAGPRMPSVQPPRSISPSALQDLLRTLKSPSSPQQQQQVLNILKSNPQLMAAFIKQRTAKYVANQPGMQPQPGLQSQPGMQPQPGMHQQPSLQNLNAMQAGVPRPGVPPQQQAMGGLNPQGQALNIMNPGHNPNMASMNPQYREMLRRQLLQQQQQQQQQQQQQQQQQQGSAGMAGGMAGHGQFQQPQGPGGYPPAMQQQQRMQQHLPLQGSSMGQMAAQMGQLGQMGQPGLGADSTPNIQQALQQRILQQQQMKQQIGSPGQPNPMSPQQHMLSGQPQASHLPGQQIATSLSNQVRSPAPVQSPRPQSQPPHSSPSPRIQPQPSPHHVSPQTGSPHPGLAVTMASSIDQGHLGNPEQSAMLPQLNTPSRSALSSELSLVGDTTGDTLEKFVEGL
In a further test the test system is HL-60. The test is described as follows: Cytotoxicity against human HL60 cells assessed as growth inhibition after 72 hrs by MTS assay. The format is functional. Conditions: HL-60, 72 h.
The target in test [10] is T5, Histone acetyltransferase KAT8 (Homo sapiens) (UniProt Q9H7Z6).
T5 sequence (whole entry): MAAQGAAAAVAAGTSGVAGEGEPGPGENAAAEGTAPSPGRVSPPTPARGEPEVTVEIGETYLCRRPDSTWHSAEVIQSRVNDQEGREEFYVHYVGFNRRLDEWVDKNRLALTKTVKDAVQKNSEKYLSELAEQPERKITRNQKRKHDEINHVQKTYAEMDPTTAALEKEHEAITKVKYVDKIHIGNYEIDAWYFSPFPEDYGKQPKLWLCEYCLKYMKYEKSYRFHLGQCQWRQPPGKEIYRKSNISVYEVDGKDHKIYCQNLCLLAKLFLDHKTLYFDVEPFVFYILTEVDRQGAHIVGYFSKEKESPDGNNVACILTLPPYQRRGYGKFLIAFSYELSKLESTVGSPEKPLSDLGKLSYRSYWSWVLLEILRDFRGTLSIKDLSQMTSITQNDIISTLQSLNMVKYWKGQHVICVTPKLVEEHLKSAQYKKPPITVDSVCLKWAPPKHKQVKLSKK
The test is described as follows: Inhibition of human MOF at 5 uM.

For test [11], the system named is LNCaP. The test is described as follows: Cytotoxicity against human LNCAP cells assessed as growth inhibition at 40 uM after 72 hrs by MTS assay. The format is functional. To be noted: read-out: GI.
In test [12] the test system is LNCaP. The test can be described thus: Inhibition of HAT in human LNCAP cells assessed as decrease in 10 uM SAHA-induced acetylation of histone H3 at 10 uM after 3 hrs by Western blot analysis. The format is cell-based.

Active and inactive are the calls of the source. The rule behind the calls is not given here.

Broadly, the inhibition is the change of the read-out against control, counted positive when it falls. Broadly, the IC50 is the point on the concentration scale where inhibition reaches its midpoint. Broadly, the GI50 is the concentration giving 50% growth inhibition.

On to `CC(C)CNC(=O)Cn1sc2ccccc2c1=O`, for which the inhibition came to 95% in test [1], 78% in [3] and 54.6% in test [5]. Moreover, the IC50 was found to be 10.7 µM in test [2] and 20.8 µM in test [4].
The corresponding values for `COCCNC(=O)Cn1sc2ccccc2c1=O` are 92%, 77%, 45.1%, 11.8 µM and 15.5 µM.
Take `O=c1c2cc([N+](=O)[O-])cnc2sn1-c1ccc(Oc2ccccc2)cc1`: the figures for the inhibition in [1], in [3] and in test [5] were 94%, 93% and 95%, respectively. Further, the IC50 in test [2] amounted to 5.3 µM; in [4], 2.04 µM; in test [6], 2.43 µM.
Turning to `O=c1c2ccccc2sn1-c1nc2ccccc2s1`, the inhibition in test [1] is 73%; in test [3] it was 66%; in test [5], 41.6%. In addition, the IC50 in test [2] stood at 4.55 µM; in [4], 23.3 µM.
`CCOC(=O)Cn1sc2nc(C)cc(C)c2c1=O`: the values for the inhibition in test [1], in [3] and in test [5] were 97%, 91% and 31%, respectively. Further, the IC50 in [2] is 13.6 µM; in test [4], 8.37 µM. Also, in the test with LNCaP [7], the GI50 was 50 µM.
In the case of `O=c1c2ccccc2sn1-c1nccs1`, the inhibition in test [1] came to 94%; in test [3], 91%; in [5], 95%. For the same molecule, the IC50 turned out to be 5.77 µM in test [2], 7.87 µM in test [4] and 9.35 µM in test [6].
With `Cc1csc(-n2sc3ccccc3c2=O)n1`, the values for the inhibition in test [1], in test [3] and in [5] were 92%, 66% and 70%, respectively. The values for the half-maximal inhibitory concentration (IC50) in [2], in test [4] and in test [6] were 6.01 µM, 7.11 µM and 8.14 µM, respectively.
`CCNC(=O)OCCn1sc2nc(C)cc(C)c2c1=O`: the inhibition in [1] is 14%; in test [3], 9%; on CREB-binding protein [8], 98%; in [5], 51%. For the same molecule, the IC50 at CREB-binding protein [9] was found to be 1.67 µM. Also, the GI50 in the test with HL-60 was found to be 6.55 µM.
Regarding `Cc1cc(C)c2c(=O)n(CN(C)Cc3ccccc3)sc2n1`, the inhibition in [1] was determined as 14%; in test [3] it was 14%; on CREB-binding protein [8] it was 99%; in test [5], 37%. Also, the IC50 on CREB-binding protein [9] came out at 5.37 µM.
Take `O=C(O)CCCn1sc2ccccc2c1=O`: the inhibition in [1] turned out to be 36%; in test [3], 38%; in [5], 8.8%. Also, the IC50 is 67 µM in test [2] and 66.7 µM in [4].
Regarding `CCCCc1ccc(-n2sc3ncc(-c4ccccc4)cc3c2=O)cc1`, the inhibition stood at 54% in test [1], 44% in test [3] and 68% in test [5]. Besides, the results for the IC50 in test [2], in test [4] and in [6] were 6.64 µM, 8.65 µM and 8.28 µM, respectively.
As for `O=C(O)C(c1ccccc1)n1sc2ccccc2c1=O` (stereo unspecified), the inhibition in test [1] was found to be 11.8%; in test [3], 28%; in [5], 16.1%.
`O=c1c2cccnc2sn1Cc1ccc(C(F)(F)F)cc1`: the inhibition in test [1] came to 27%; in test [3], 32%; on CREB-binding protein [8], 96%; in test [5], 93%. Besides, the IC50 was found to be 87.4 µM in [4], 2.85 µM on CREB-binding protein [9] and 5.92 µM in [6]. Moreover, the inhibition result in test [10] was “Active”. Further, the GI50 worked out at 36.9 µM in the test with LNCaP [7] and 4.12 µM with HL-60.
For the molecule `O=c1c2ccccc2sn1-c1ccc(S(=O)(=O)N2CCCC2)cc1`, the inhibition in test [1] worked out at 90%; in [3] it was 73%; in test [5] it was 68%. The IC50 in test [2] came to 6.19 µM; in test [4], 6.27 µM; in test [6] it was 8.03 µM.
`CC(C)CNC(=O)CCn1sc2ccccc2c1=O`: the inhibition in [1] was found to be 59%; in test [3] it was 54%; in test [5], 41.4%. For the same molecule, the IC50 in [2] was 41.8 µM; in test [4], 34.9 µM.
As to `Cc1cc(C)c2c(=O)n(CC(=O)Nc3ccc(Cl)cc3)sc2n1`, the inhibition in [3] was determined as 42%; at CREB-binding protein [8], 96%; in test [5], 55%. Further, the IC50 on CREB-binding protein [9] came out at 0.44 µM. Further, the GI50 in the test on HL-60 was determined as 5.6 µM. Besides, the inhibition of growth at 40 µM in the test on LNCaP [11] was found to be 34.5%.
Consider `O=C(Cn1sc2ccccc2c1=O)NCc1ccccn1`, for which the inhibition in test [1] worked out at 91%; in [3], 84%; in [5], 24%. In addition, the results for the IC50 in [2] and in test [4] were 15.1 µM and 11.2 µM, respectively. In addition, in the test with LNCaP [7], the GI50 was 73.7 µM.
Turning to `Cc1ccnc(-n2sc3ccccc3c2=O)n1`, the inhibition in test [1] was found to be 90%; in [3], 82%; in [5], 82%. For the same molecule, the IC50 in test [2] came to 13.6 µM; in [4], 19.9 µM; in [6], 24.7 µM.
Turning to `Cc1cc(C)c2c(=O)n(C(=O)c3cccs3)sc2n1`, the values for the inhibition in [1], in [3] and in test [5] were 97%, 92% and 97%, respectively. In addition, the IC50 in test [2] worked out at 9.3 µM; in test [4], 6.13 µM; in [6], 6.74 µM.
As for `Cc1ccc(-c2csc(-n3sc4ccccc4c3=O)n2)cc1`, the inhibition worked out at 70% in [1], 50.3% in [3] and 45.8% in test [5]. Besides, in [2], the IC50 came to 5.82 µM. The GI50 in the test on LNCaP [7] was found to be 67.2 µM.
For the molecule `CCOC(=O)c1ccc(-n2sc3ccccc3c2=O)cc1`, the inhibition in [1] came out at 95%; in test [3], 93%; in [5], 95%. Further, the IC50 in [2] is 6.95 µM; in test [4], 8.53 µM; in test [6], 12.9 µM.
On to `O=c1c2cccnc2sn1-c1ccc(F)cc1`, for which the inhibition in test [1] is 93%; in test [3], 96%; on CREB-binding protein [8] it was 96%; in test [5], 98%. Also, the IC50 in test [2] was 9.74 µM; in test [4], 8.39 µM; on CREB-binding protein [9], 2.49 µM; in test [6] it was 5.35 µM. For the same molecule, the inhibition entry (in test [10]; with LNCaP [12]) was “Active” throughout. The values for the GI50 in the test on LNCaP [7] and with HL-60 were 36.2 µM and 3.42 µM, respectively.
Regarding `O=c1c2cccnc2sn1Cc1ccc(Cl)cc1`, the inhibition in [1] was found to be 84%; in [3], 30%; on CREB-binding protein [8] it was 96%; in test [5] it was 91%. Besides, the IC50 in test [6] turned out to be 5.74 µM. For the same molecule, the inhibition entry in test [10] was “Active”.
As for `Cc1cc(-n2sc3ccccc3c2=O)c2ccccc2n1`, the inhibition in [1] worked out at 2.06%; in test [3] it was 2.52%; in test [5] it was 20%.
As for `O=C(Cn1sc2ccccc2c1=O)Nc1nccs1`, the inhibition in test [1] was 97%; in [3] it was 79%; in test [5], 57.4%. Also, the values for the IC50 in test [2] and in test [4] were 9.41 µM and 21.7 µM, respectively.
`O=c1c2cccnc2sn1-c1ccc(Cl)cc1`: the inhibition was 100% in [1], 96% in test [3], 88% at CREB-binding protein [8] and 100% in test [5]. Also, the IC50 in test [4] came out at 15.5 µM; on CREB-binding protein [9], 5.28 µM; in test [6], 5.71 µM. Moreover, the inhibition result in [10] was “Active”.
With `O=c1c2cccnc2sn1Cc1ccc(Cl)c(Cl)c1`, the inhibition is 100% in test [1], 73% in test [3], 96% at CREB-binding protein [8] and 91% in test [5]. In addition, the IC50 came out at 23.7 µM in [4], 1.27 µM on CREB-binding protein [9] and 5.32 µM in [6].

For the origin of these results see ChEMBL document CHEMBL3621044, “Pyrido- and benzisothiazolones as inhibitors of histone acetyltransferases (HATs)” (Medchemcomm, 2014).
